Drawing on ChEMBL document CHEMBL1158094, “Paratunamides A-D, oxindole alkaloids from Cinnamodendron axillare” (J Nat Prod, 2006), this text covers IC50 for 4 molecules.

In brackets after ≈: the same amount, converted by molar mass.

The assay has as its system KB. Description: Cytotoxicity against human KB cells. It counts as functional, cell-based.
For `C=C[C@H]1[C@H](O[C@@H]2O[C@H](CO)[C@@H](O)[C@H](O)[C@H]2O)OC=C2C(=O)N(CC[C@]3(O)C(=O)Nc4ccccc43)C(=O)C[C@H]21` [PARATUNAMIDE C], the half-maximal inhibitory concentration (IC50) is above 10 µg/mL.
As for `C=C[C@H]1[C@H](O[C@@H]2O[C@H](CO)[C@@H](O)[C@H](O)[C@H]2O)OC=C2C(=O)N(CC[C@@]3(O)C(=O)Nc4ccccc43)C(=O)C[C@H]21` [PARATUNAMIDE B], the 50% inhibitory concentration (IC50) is above 10 µg/mL.
With `C=C[C@H]1[C@H](O[C@@H]2O[C@H](CO)[C@@H](O)[C@H](O)[C@H]2O)OC=C2C(=O)N(CC[C@@]3(O)C(=O)Nc4ccccc43)[C@H](O)C[C@H]21` [PARATUNAMIDE D] the figure was 6 µg/mL (≈ 10.9 µM).
Then `C=C[C@H]1[C@H](O[C@@H]2O[C@H](CO)[C@@H](O)[C@H](O)[C@H]2O)OC=C2C(=O)N(CC[C@@]3(O)C(=O)Nc4ccccc43)[C@H](OC)C[C@H]21` [PARATUNAMIDE A], with above 10 µg/mL.
